Test results: patent US20200206157A1, “COMPOSITION FOR USE IN THE PREVENTION AND TREATMENT OF PATHOLOGIES OF THE CARDIOVASCULAR APPARATUS” (PHARMANUTRA S.P.A., priority 2017, published 2020)

How the values were obtained:
[1] = test system: vascular smooth muscle cells (VSMCs); experiment: Vascular calcification induced by Pi 5 mM in VSMCs, extracellular calcium deposition on day 7; assay type: cell-based; settings: rat VSMCs; for calcification inhibition: compared with 5 mM Pi in the same solvent; for effect of the individual compounds on the calcification (dose-response curves): Pi 5 mM
Experimental: The experimental model consists of vascular smooth muscle cells (VSMCs) removed from the aorta of a rat (primary cells) and stimulated for 7 days with Na3PO4 (Pi) 5 mM to induce them to […]. […] On day 7, the effect of the treatment on the extracellular calcium deposition was analyzed both by a qualitative histological method (staining of calcium deposits by Alizarin Red Staining), and by a quantitative method, by measuring the amount of […] calcium by a spectrophotometric technique (FIG. 1). Each type of experiment was repeated at least 3 times and each condition was tested at least three times within every single experiment.

[2] = test system: human aortic cell cultures; experiment: Calcification induced by inorganic phosphate (Pi, 2 mM) in human aortic cell cultures, Alizarin Red Staining quantification; assay type: cell-based; settings: products at 0.03%; for % VAR vs CTR+: average % variation of ARS vs positive control (Pi 2 mM only); for % VAR vs CTR−: average % variation of ARS vs untreated negative control; for % VAR vs CTR− / ARS mM average: Pi 2 mM; for ARS mM average: human aortic cells, 7 days, ARS quantity proportional to calcium content
Experimental: (II) Similarly to what has been stated for the in vitro (I) study, the efficacy was tested of the composition according to the present invention comprising sucrosomial iron pyrophosphate (SRM) (Sucrosomiale®; Sucrosomial®), vitamin K2 menaquinone-7 (MK-7) and magnesium carbonate (MC) (composition called TRIO in Table 1 and FIG. 10) on the slowing of the progression of the vascular calcification induced by high levels of sodium phosphate (Pi) in a vascular cell culture and compared with the efficacy of the single components of the TRIO composition.
In particular, to execute the efficacy test, human aortic cell cultures were treated for 7 days with inorganic phosphate (Pi, 2 mM), a known calcifying agent, to induce mineralization of the cells, and with the products subjected to a concentration test 0.03% (% g of compound under examination/solution volume) and subsequently treated with the compound compositions under examination. At the end of the experimental treatment, the calcium content was quantified by a colorimetric assay, i.e. staining of the calcium deposits by Alizarin Red Staining (ARS).
The experimental design specified: untreated cell cultures (negative control CTR−), cell cultures (positive control CTR+) treated only with the calcifying agent (Pi) and cell cultures in which a calcification event was induced experimentally by the calcifying agent (Pi) and subsequently treated with the compositions/compounds under examination (0.03% concentrations) such as TRIO composition, only sucrosomial iron pyrophosphate (SRM) (Sucrosomiale®; Sucrosomial®), only vitamin K2 menaquinone-7 (MK-7) and only magnesium carbonate (MC).
The Alizarin Red Staining S (ARS) is an anthraquinone staining solution that is widely used to evaluate calcium deposits in cell cultures. Alizarin Red Staining (ARS) is versatile because the dye can be easily extracted from the coloured single layer of the cells and can be promptly dosed. The ARS quantification assay provides a sensitive tool for partial quantification of calcium in a cell matrix. Mineralization is assessed by extracting the low pH calcified mineral, neutralization with ammonia hydroxide and 405 nm colorimetric detection.
In the present study, the cells subjected to the different aforementioned treatments were fixed for ARS and the deposition of mineral was quantified by a commercially available colorimetric kit. For this purpose, a calibration curve was plotted with known and increasing ARS concentrations.
The results are set out in Table 1 and FIG. 10 as an ARS quantity that is directly proportional to the calcium content in the different experimental treatments (average value±st. dev.) and as average % variation from the controls. The data obtained from the different experimental groups were analyzed statistically and compared with T-test. The significant values in FIG. 10 compared with the positive control (p<0.05) are marked with an asterisk (*).

| Compound | calcification inhibition ([1]; in ethanol) [%] | calcification inhibition ([1]; in ethyl acetate) [%] | % VAR vs CTR+ [2] [%] | % VAR vs CTR− [2] [%] | ARS mM average [2] [mM] | effect of the individual compounds on the calcification (dose-response curves) [1] |
| --- | --- | --- | --- | --- | --- | --- |
| CC(C)=CCC/C(C)=C/CC/C(C)=C/CC/C(C)=C/CC/C(C)=C/CC/C(C)=C/CC/C(C)=C/CC1=C(C)C(=O)c2ccccc2C1=O [9_MK7, menaquinone-7] | 20 | 15 to 30 | 58.0 | 34.7 | 0.100 |  |
| iron (III) pyrophosphate [Fe4(P2O7)3] |  |  |  |  |  | powerful calcification inhibitors, with a dose-dependent protective effect |
| O=C([O-])[O-].[Mg+2] [11_MC, magnesium carbonate] |  |  | −49.6 | 61.7 | 0.120 |  |
| [Cl-].[Cl-].[Mg+2] [MgCl2, magnesium chloride] |  |  |  |  |  | powerful calcification inhibitors, with a dose-dependent protective effect |
